Results published in patent US20240360148A1 (SUVALENT THERAPEUTICS, INC., priority 2021, published 2024).

Tests used:
SAE1 = SAE1 (Homo sapiens (Human), UniProt Q9UBT2); assay: SAE High Throughput Biochemical Assay (HTRF), 15 min preincubation; settings: SAE1 12.5 nM, ATP 100 μM
Method in brief: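 HTRF detection of SUMO transfer from SUMO-GST to UBC9-His (40 nM each) by SAE1 at 12.5 nM used 100 μM ATP in pH 7.5 HEPES buffer with 10 mM MgCl2 and 0.1% BSA. Enzyme and compound were preincubated 15 min at RT and the reaction ran 45 min, with readings after 2 h and overnight.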

[1] = tested on: sumoylation levels (SUMO 2/3 conjugates) in HCT-116 cells; assay: HCT-116 4 Hour Cell Assay (Western, SUMO 2/3 conjugates); format: cell-based; settings: Homo sapiens, HCT-116, 4 h, 4 h treatment, Anti-Sumo 2-3 immunoblot, read-out: HCT-116 Western 4 h IC50 (μM) Ave
Method in brief: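 IC50 derived from fluorescent immunoblot quantification of SUMO 2/3 conjugate bands, normalized to total protein, after non-reducing SDS-PAGE. Lysis used RIPA plus NEM; exposure was 4 h across 11 concentrations, three-fold serial dilution starting at 25 μM.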

SAE1, sequence (Q9UBE0 whole entry): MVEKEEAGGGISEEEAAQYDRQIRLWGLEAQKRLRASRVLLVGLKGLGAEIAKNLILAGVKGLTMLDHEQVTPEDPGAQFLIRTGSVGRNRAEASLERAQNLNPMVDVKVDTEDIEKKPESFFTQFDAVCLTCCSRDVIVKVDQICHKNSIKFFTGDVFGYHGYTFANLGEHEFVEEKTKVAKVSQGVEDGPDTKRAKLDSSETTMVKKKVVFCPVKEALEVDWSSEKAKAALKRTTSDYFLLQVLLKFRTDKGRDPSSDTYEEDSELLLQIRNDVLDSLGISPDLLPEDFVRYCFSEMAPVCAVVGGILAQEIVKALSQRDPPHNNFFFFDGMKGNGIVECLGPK
SAE1, sequence (Q9UBT2 whole entry): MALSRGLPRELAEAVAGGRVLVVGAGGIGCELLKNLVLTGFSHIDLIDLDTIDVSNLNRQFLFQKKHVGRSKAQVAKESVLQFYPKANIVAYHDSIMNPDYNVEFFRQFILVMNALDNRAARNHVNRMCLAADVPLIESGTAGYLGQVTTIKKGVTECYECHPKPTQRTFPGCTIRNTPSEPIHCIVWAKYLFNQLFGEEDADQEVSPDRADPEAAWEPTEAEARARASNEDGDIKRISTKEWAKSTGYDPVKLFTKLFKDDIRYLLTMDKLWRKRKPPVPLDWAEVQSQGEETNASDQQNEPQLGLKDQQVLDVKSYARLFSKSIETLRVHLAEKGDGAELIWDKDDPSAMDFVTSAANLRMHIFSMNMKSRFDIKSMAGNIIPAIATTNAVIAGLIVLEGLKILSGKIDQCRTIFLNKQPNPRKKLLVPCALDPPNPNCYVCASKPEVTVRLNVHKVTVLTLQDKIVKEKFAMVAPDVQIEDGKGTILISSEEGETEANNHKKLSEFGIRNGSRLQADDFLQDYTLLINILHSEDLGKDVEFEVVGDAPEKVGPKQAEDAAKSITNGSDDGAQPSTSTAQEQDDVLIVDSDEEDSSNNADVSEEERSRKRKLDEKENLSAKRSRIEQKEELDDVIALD

Structure (SMILES) | IC50 (SAE1) | IC50 [1]
CCn1cc(-c2c(F)cccc2[C@@H]2CN(C(=O)/C=C\CN(C)C)Cc3sc(C#N)c(C)c32)c(C(F)(F)F)n1 [Compound 223] | 0.052 µM | 0.0473 µM
CCn1cc(-c2c(F)cccc2[C@@H]2CN(C(=O)/C=C\CNC)Cc3sc(C#N)c(C)c32)c(C(F)(F)F)n1 [Compound 225] | 0.034 µM | 0.298 µM
CCn1cc(-c2ccccc2[C@@H]2CN(C(=O)/C=C/C(C)N(C)C)Cc3sc(C#N)cc32)c(C(F)(F)F)n1 (stereo partly shown) [Compound 235] | 4.15 µM | 0.285 µM
CCn1cc(-c2ccccc2[C@@H]2CN(C(=O)/C=C/COC)Cc3sc(C#N)cc32)c(C(F)(F)F)n1 [Example 7, (S, E)-4-(2-(1-Ethyl-3-(trifluoromethyl)-1 H-pyrazol-4-yl)phenyl)-6-(4-methoxybut-2-enoyl)-4,5,6,7-tetrahydrothieno[2,3-c]pyridine-2-carbonitrile] | 9.31 µM | 1.95 µM
CCn1cc(-c2ccccc2[C@@H]2CN(C(=O)/C=C/C(F)(F)F)Cc3sc(C#N)cc32)c(C(F)(F)F)n1 [Example 22, (S, E)-4-(2-(1-ethyl-3-(trifluoromethyl)-1 H-pyrazol-4-yl)phenyl)-6-(4,4,4-trifluorobut-2-enoyl)-4,5,6,7-tetrahydrothieno[2,3-c]pyridine-2-carbonitrile] | 0.39 µM | 0.214 µM
CCC(/C=C/C(=O)N1Cc2sc(C#N)cc2[C@H](c2ccccc2-c2cn(CC)nc2C(F)(F)F)C1)N(C)C (stereo partly drawn) [Example 24, (4S)-6-((E)-4-(dimethylamino)hex-2-enoyl)-4-(2-(1-ethyl-3-(trifluoromethyl)-1 H-pyrazol-4-yl)phenyl)-4,5,6,7-tetrahydrothieno[2,3-c]pyridine-2-carbonitrile] | > 25 µM | –
CCC(N)/C=C/C(=O)N1Cc2sc(C#N)cc2[C@H](c2ccccc2-c2cn(CC)nc2C(F)(F)F)C1 (stereo partly drawn) [Example 39, (4S)-6-((E)-4-aminohex-2-enoyl)-4-(2-(1-ethyl-3-(trifluoromethyl)-1 H-pyrazol-4-yl)phenyl)-4,5,6,7-tetrahydrothieno[2,3-c]pyridine-2-carbonitrile] | 8.56 µM | –
CCn1cc(-c2ccccc2[C@@H]2CN(C(=O)/C=C/C(N)C3CC3)Cc3sc(C#N)cc32)c(C(F)(F)F)n1 (stereo partly drawn) [Example 42, (4S)-6-((E)-4-amino-4-cyclopropylbut-2-enoyl)-4-(2-(1-ethyl-3-(trifluoromethyl)-1 H-pyrazol-4-yl)phenyl)-4,5,6,7-tetrahydrothieno[2,3-c]pyridine-2-carbonitrile] | 8.39 µM | –
CCn1cc(-c2ccccc2[C@@H]2CN(C(=O)/C=C/C(N)Cc3ccccc3)Cc3sc(C#N)cc32)c(C(F)(F)F)n1 (stereo partly drawn) [Example 44, (4S)-6-((E)-4-amino-5-phenylpent-2-enoyl)-4-(2-(1-ethyl-3-(trifluoromethyl)-1 H-pyrazol-4-yl)phenyl)-4,5,6,7-tetrahydrothieno[2,3-c]pyridine-2-carbonitrile] | 9.86 µM | –
CCn1cc(-c2ccccc2[C@@H]2CN(C(=O)/C=C/CCNC)Cc3sc(C#N)cc32)c(C(F)(F)F)n1 [Example 45, (S, E)-4-(2-(1-ethyl-3-(trifluoromethyl)-1 H-pyrazol-4-yl)phenyl)-6-(5-(methylamino)pent-2-enoyl)-4,5,6,7-tetrahydrothieno[2,3-c]pyridine-2-carbonitrile] | 23.2 µM | –
CCn1cc(-c2ccccc2[C@@H]2CN(C(=O)/C=C/[C@@H](C)N)Cc3sc(C#N)cc32)c(C(F)(F)F)n1 [Example 47, (S)-6-((R, E)-4-aminopent-2-enoyl)-4-(2-(1-ethyl-3-(trifluoromethyl)-1 H-pyrazol-4-yl)phenyl)-4,5,6,7-tetrahydrothieno[2,3-c]pyridine-2-carbonitrile] | 3.37 µM | 2.72 µM
[2H]C([2H])([2H])N(C/C=C/C(=O)N1Cc2sc(C#N)cc2[C@H](c2cccc(F)c2-c2cn(CC)nc2C(F)(F)F)C1)C([2H])([2H])[2H] [Example 48, (S,E)-6-(4-(bis(methyl-d3)amino)but-2-enoyl)-4-(2-(1-ethyl-3-(trifluoromethyl)-1 H-pyrazol-4-yl)-3-fluorophenyl)-4,5,6,7-tetrahydrothieno[2,3-c]pyridine-2-carbonitrile] | 1.12 µM | 0.197 µM
CCn1cc(-c2ccccc2[C@@H]2CN(C(=O)/C=C/[C@H]3CCCN3C)Cc3sc(C#N)cc32)c(C(F)(F)F)n1 [Example 90, (S)-4-(2-(1-Ethyl-3-(trifluoromethyl)-1 H-pyrazol-4-yl)phenyl)-6-((E)-3-((R)-1-methylpyrrolidin-2-yl)acryloyl)-4,5,6,7-tetrahydrothieno[2,3-c]pyridine-2-carbonitrile] | 5.68 µM | 3.05 µM
CCn1cc(-c2ccccc2[C@@H]2CN(C(=O)/C=C/CNC3(C)CC3)Cc3sc(C#N)cc32)c(C(F)(F)F)n1 [Example 94, (S,E)-4-(2-(1-Ethyl-3-(trifluoromethyl)-1H pyrazol-4-yl)phenyl)-6-(4-((1-methylcyclopropyl)amino)but-2-enoyl)-4,5,6,7-tetrahydrothieno[2,3-c]pyridine-2-carbonitrile] | 1.86 µM | 1.16 µM
CCn1cc(-c2ccccc2[C@@H]2CN(C(=O)/C=C/CNC3(C)CNC3)Cc3sc(C#N)cc32)c(C(F)(F)F)n1 [Example 98, (S,E)-4-(2-(1-Ethyl-3-(trifluoromethyl)-1H pyrazol-4-yl)phenyl)-6-(4-((3-methylazetidin-3-yl)amino)but-2-enoyl)-4,5,6,7-tetrahydrothieno[2,3-c]pyridine-2-carbonitrile] | > 25 µM | –
CCn1cc(-c2ccccc2[C@@H]2CN(C(=O)/C=C/C3CNC3)Cc3sc(C#N)cc32)c(C(F)(F)F)n1 [Example 108, (S, E)-6-(3-(Azetidin-3-yl)acryloyl)-4-(2-(1-ethyl-3-(trifluoromethyl)-1 H-pyrazol-4-yl)phenyl)-4,5,6,7-tetrahydrothieno[2,3-c]pyridine-2-carbonitrile] | 11 µM | –
CCn1cc(-c2ccccc2[C@@H]2CN(C(=O)C#CC(C)(C)N)Cc3sc(C#N)cc32)c(C(F)(F)F)n1 [Example 134, (S)-6-(4-Amino-4-methylpent-2-ynoyl)-4-(2-(1-ethyl-3-(trifluoromethyl)-1H-pyrazol-4-yl)phenyl)-4,5,6,7-tetrahydrothieno[2,3-c]pyridine-2-carbonitrile] | 0.32 µM | 3.12 µM
CC(C)n1cc(-c2ccccc2[C@@H]2CN(C(=O)/C=C/CN(C)C)Cc3sc(C#N)cc32)c(C(F)(F)F)n1 [Example 175] | 3.05 µM | 0.321 µM
COc1cncnc1-n1cc(-c2ccccc2[C@@H]2CN(C(=O)/C=C/CN(C)C)Cc3sc(C#N)cc32)c(C(F)(F)F)n1 [Example 178, (S,E)-6-(4-(dimethylamino)but-2-enoyl)-4-(2-(1-(5-methoxypyrimidin-4-yl)-3-(trifluoromethyl)-1H pyrazol-4-yl)phenyl)-4,5,6,7-tetrahydrothieno[2,3-c]pyridine-2-carbonitrile] | 16.7 µM | 0.69 µM
CCn1cc(-c2cc(C(=O)NC)ccc2C2CN(C(=O)/C=C/CN(C)C)Cc3sc(C#N)cc32)c(C(F)(F)F)n1 (stereo not shown) [Example 208, (E)-4-(2-Cyano-6-(4-(dimethylamino)but-2-enoyl)-4,5,6,7-tetrahydrothieno[2,3-c]pyridin-4-yl)-3-(1-ethyl-3-(trifluoromethyl)-1 H pyrazol-4-yl)-N-methylbenzamide] | > 25 µM | –
CCn1cc(-c2ccccc2C2CN(C(=O)/C=C/CN(C)C)Cc3sc(C#N)c(Cl)c32)c(C(F)(F)F)n1 (stereo not shown) [Example 214, (E)-3-chloro-6-(4-(dimethylamino)but-2-enoyl)-4-(2-(1-ethyl-3-(trifluoromethyl)-1 H-pyrazol-4-yl)phenyl)-4,5,6,7-tetrahydrothieno[2,3-c]pyridine-2-carbonitrile] | 3.97 µM | 0.356 µM
CNC/C=C/C(=O)N1Cc2sc(C#N)c(C)c2[C@H](c2cccc(F)c2-c2cn(C)nc2C(F)(F)F)C1 [Example 216, (S,E)-4-(3-fluoro-2-(1-methyl-3-(trifluoromethyl)-1 H-pyrazol-4-yl)phenyl)-3-methyl-6-(4-(methylamino)but-2-enoyl)-4,5,6,7-tetrahydrothieno[2,3-c]pyridine-2-carbonitrile] | 0.18 µM | 0.1 µM
[2H]C([2H])([2H])N(C/C=C/C(=O)N1Cc2sc(C#N)cc2[C@H](c2ccccc2-c2cn(CC)nc2C(F)(F)F)C1)C([2H])([2H])[2H] [Example 245, (S,E)-6-(4-(bis(methyl-d3)amino)but-2-enoyl)-4-(2-(1-ethyl-3-(trifluoromethyl)-1 H-pyrazol-4-yl)phenyl)-4,5,6,7-tetrahydrothieno[2,3-c]pyridine-2-carbonitrile] | 4.15 µM | 0.207 µM
CCn1cc(-c2c(F)cccc2[C@@H]2CN(C(=O)/C=C/[C@@H]3CCCN3)Cc3sc(C#N)c(C)c32)c(C(F)(F)F)n1 [Example 249, (S)-4-(2-(1-ethyl-3-(trifluoromethyl)-1 H-pyrazol-4-yl)-3-fluorophenyl)-3-methyl-6-((E)-3-((S)-pyrrolidin-2-yl)acryloyl)-4,5,6,7-tetrahydrothieno[2,3-c]pyridine-2-carbonitrile] | 0.14 µM | 0.169 µM
